Like-named read-outs stand apart in the source and are kept apart here.
Assays:
cdk4/cyclin D1 = cdk4/cyclin D1 (Homo sapiens, UniProt P11802); assay: Cyclin-dependent kinase assay, cdk4/cyclin D1 (GST-pRb substrate); type: biochemical
MDA-MB-435 = assay: In vitro proliferation assay (MTT), MDA-MB-435; type: cell-based, human; conditions: mean (SD, n) where given, read-out: MB-435 Breast (IC50 μM)
Procedure: (§1) The proliferation of tumor cells can be measured using a tetrazolium salt-based assay known as the MTT (3-[4,5-Dimethylthiazol-2-yl]-2,5-diphenyltetrazolium bromide) assay. […] For the assay, the cell lines are plated onto 96 well plates at 1000 to 2500 cells/well (depending on the properties of the individual cell lines), left to attach and recover overnight. […] After 3 days, the cells are incubated with MTT dye (3-[4,5-Dimethylthiazol-2-yl]-2,5-diphenyltetrazolium bromide, Sigma #M5655, 10 mg/ml in Hank's Buffered Saline) to estimate the amount of live cells remaining vs. concentration for the test compounds. […] The MTT and culture medium is then removed from the cultures and 200 μl of DMSO is added to solubilize the dye from the cell layer. The absorbance at 570 nm is determined for each culture using a Spectramax plate reader (Molecular Devices).
(§2) IC50s were determined from the raw data from either the MTT or SRB assays.
(§3) All of the cell lines were obtained from American Type Tissue Collection, with the ATCC accession number in parentheticals. MCF-7 and MDA-MB-231 cells were grown in improved minimum essential medium (Biofluids) without phenol red, supplemented with 5% fetal bovine serum, 0.01 mg/ml gentamicin and 3 mM L-glutamine.

NCI-H460 = assay: In vitro proliferation assay (MTT), NCI-H460; type: cell-based, human; conditions: read-out: H-460 Lung (IC50 μM)
Procedure: (§4) The proliferation of tumor cells can be measured using a tetrazolium salt-based assay known as the MTT (3-[4,5-Dimethylthiazol-2-yl]-2,5-diphenyltetrazolium bromide) assay. The proliferation test is performed essentially as described by Carmichael et al., Cancer Res. 47: 936-942, 1987. For the assay, the cell lines are plated onto 96 well plates at 1000 to 2500 cells/well (depending on the properties of the individual cell lines), left to attach and recover overnight. […] After 3 days, the cells are incubated with MTT dye (3-[4,5-Dimethylthiazol-2-yl]-2,5-diphenyltetrazolium bromide, Sigma #M5655, 10 mg/ml in Hank's Buffered Saline) to estimate the amount of live cells remaining vs. concentration for the test compounds. Specifically, MTT solution is added to a final concentration of […] and the plates incubated at 37 C for 2 to 4 hr. The MTT and culture medium is then removed from the cultures and 200 μl of DMSO is added to solubilize the dye from the cell layer. The absorbance at 570 nm is determined for each culture using a Spectramax plate reader (Molecular Devices).
as §2
(§5) All of the cell lines were obtained from American Type Tissue Collection, with the ATCC accession number in parentheticals. […]

PC-3 = assay: In vitro proliferation assay (MTT), PC-3; type: cell-based, human; conditions: MTT assay; mean (SD, n) where given; read-out: PC-3 Prostate (IC50 μM)
Procedure: as §1, §2, §3

Colo-205 = assay: In vitro proliferation assay (MTT), Colo-205; type: cell-based; conditions: read-out: Colo-205 Colon (IC50 μM)
Procedure: as §4, §2

cdk2/cyclin E = cdk2/cyclin E (Homo sapiens, UniProt P24941); assay: Cyclin-dependent kinase assay, cdk2/cyclin E (GST-pRb substrate); conditions: read-out: CDK2 IC50; inhibition of cyclin E/CDK 2 enzyme activity
Procedure: (§7) The IC50 values for cdk1/cyclin B, cdk2/cyclin E, and cdk4/cyclin D1 inhibition are determined using the following methods:
The cdk2 sequence (accession number X62071) is amplified by PCR and cloned into the SpeI and XhoI sites of pFASTBAC1 (Life Technologies). […] This primer would anneal in the 3′ untranslated sequence.
The cyclin E sequence (accession number M73812) is amplified by PCR and cloned into the XbaI and XhoI sites of pFASTBAC1 (Life Technologies).
(§8) The cDNA for each of the cyclin-dependent kinases (CDK) and the corresponding cyclins are cloned into the baculovirus expression vector, pFASTBAC1 (Life Technologies). The sequences of each of the constructs are confirmed by automated fluorescent DNA sequencing according to the manufacture's protocol (Perkin Elmer/Applied Biosystems Inc).
(§9) The insect cell (Sf9) expression is optimized for each of the CDK/cyclin pairs according to the manufacturer's protocols (Life Technologies).
(§10) The viruses are added to the cells and the culture is incubated at 27° C. for the desired time. The cells are harvested by centrifugation at 3000 rpm for 10 minutes. The cells are snap frozen on dry ice and stored at −80° C.
(§11) Cell extracts are made following a standard procedure. The cell pellet is resuspended in lysis buffer (50 mM HEPES, pH 8.0, 10 mM MgCl2, 1 mM DTT, 2.5 mM EGTA, 1 mM EDTA, 10 mM β-glycerophosphate, 1 mM sodium vanadate, 1 mM sodium fluoride, 1×Protease inhibitor cocktail). The cells are lysed using the microfluidizer (Microfluidics) for 20 minutes. Cell debris is removed by centrifugation at 100,000×g. The cell extracts are aliquoted in 1 ml aliquots, frozen on dry ice, and stored at −80° C.
The kinase reactions are performed following a standard procedure. […]
The transformed bacteria are grown overnight to saturation, then diluted in YT broth and incubated at 37° C. for 2 h. […] The beads are washed with kinase buffer and then quantitated of Coomassie blue-stained proteins separated by SDS-PAGE using a protein standard of known concentration.

cdk1/cyclin B = cdk1/cyclin B (Homo sapiens, UniProt P06493); assay: Cyclin-dependent kinase assay, cdk1/cyclin B (Histone H1 substrate); conditions: read-out: CDK1 IC50; inhibition of cyclin B/CDK 1 enzyme activity
Procedure: as §7
The cdk1 sequence (accession number Y00272) is amplified by PCR and cloned into the BamHI and SalI sites of pFASTBAC1 (Life Technologies).
The cyclin B1 sequence (accession number M25753) is amplified by PCR and cloned into the BamHI and SalI sites of pFASTBAC1 (Life Technologies).
as §8, §9, §10, §11
The kinase reactions are performed following a standard procedure. The enzyme and inhibitor are diluted in kinase buffer (50 mM HEPES, pH 8.0, 10 mM MgCl2, 2.5 mM EGTA, 10 mM β-glycerophosphate, 1 mM sodium vanadate, 1 mM sodium fluoride, and 1 mM DTT) and pre-incubated for 30 minutes. […] The cdk1 enzyme activity is assayed using Histone H1 (Sigma) in the presence of 10 μM ATP for 30 min at room temperature. The reactions are terminated by the addition of 50 μL of 10 mM cold ATP to stop the reactions. The reactions are transferred to a pre-soaked 96-well multi-screen plate containing 30 μL of 100% TCA per well. After incubation for one hour at room temperature, the plates are washed twice with 200 μl of 20% TCA, followed by 200 μl of 10% TCA and finally with 200 μl of 5% TCA. After drying the plates at room temperature, the filter plates are placed in adapter plates (Packard) and 40 μl of Microscint-O® (Packard) is added to each well. Top Seal A film is used to cover the plates before counting in a Top Count Scintillation Counter.
The % remained activity of the indicated Cdk/cyclin kinase complex in the presence of inhibitor is calculated by the ratio of cpm in the presence of inhibitor to cpm in the absence of inhibitor (% Activity=vi/vo×100%).

HL-60 = assay: In vitro proliferation assay (MTT), HL-60; type: cell-based, human; conditions: read-out: HL-60 Leuk. (IC50 μM)
Procedure: as §4, §2, §5

Jurkat = assay: In vitro proliferation assay (MTT), Jurkat; type: cell-based, human; conditions: read-out: Jurkat Leuk. (IC50 μM)
Procedure: as §4, §2, §5

[1] = tested on: PC-3 human prostate tumors; assay: PC-3 human prostate tumor xenograft in nude mice; type: in vivo; conditions: Table 5, control 1308 ± 852
Procedure: (§6) Antitumor efficacy is assessed using two subcutaneous human tumor xenograft models. The studies are performed using conventional assay techniques. Briefly, HL-60 (leukemia, 5×10^5 cells) and PC-3 (prostate, 5×10^6 cells) tumor cells are injected subcutaneously into nude mice (Cr1-CD1-Br-nu, Charles River Laboratory, Wilmington, Mass.). Dosing with compounds began when tumors reached 50 to 100 mm^3. The dose route/schedule for the test compounds is ip/q1d (5×/wk). The test doses are set based on the maximum tolerated dose (MTD). […] The test doses for the efficacy studies are set at ⅓rd the MTD (low dose) and the MTD (high dose). The results are shown in Tables 4 and 5 (HL-60, leukemia) (PC-3, prostate cancer). The length of the treatment phase is dependent on the tumor growth rate for the two models. This treatment phase is typically about 3 weeks for the HL-60 model and about 5 weeks for the PC-3 model. […] Dosing with flavopiridol is for the same time frame as for the experimental compounds in both xenograft models. Tumor volume (twice weekly) and body weights (once weekly) are monitored throughout the course of the treatment phase of the experiment. Tumor sizes are measured by external caliper measurements of protruding tumor. Volumes are calculated using the following formula: volume=½ (a×b2), where b is the smaller of two perpendicular diameters.

HL-60 human leukemia = HL-60 human leukemia xenograft in nude mice; type: in vivo; conditions: Table 5, control 8341 ± 5355
Procedure: as §6

cdk1/cyclin B, sequence (P06493 whole entry): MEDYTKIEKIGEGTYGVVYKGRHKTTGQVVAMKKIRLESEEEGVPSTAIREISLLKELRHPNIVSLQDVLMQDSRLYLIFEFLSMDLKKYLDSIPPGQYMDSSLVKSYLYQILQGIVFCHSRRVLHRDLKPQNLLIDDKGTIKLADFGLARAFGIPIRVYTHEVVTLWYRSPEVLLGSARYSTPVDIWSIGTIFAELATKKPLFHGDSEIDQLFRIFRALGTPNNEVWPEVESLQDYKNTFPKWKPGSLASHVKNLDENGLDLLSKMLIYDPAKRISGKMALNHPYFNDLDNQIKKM
cdk1/cyclin B, sequence (P14635 whole entry partner): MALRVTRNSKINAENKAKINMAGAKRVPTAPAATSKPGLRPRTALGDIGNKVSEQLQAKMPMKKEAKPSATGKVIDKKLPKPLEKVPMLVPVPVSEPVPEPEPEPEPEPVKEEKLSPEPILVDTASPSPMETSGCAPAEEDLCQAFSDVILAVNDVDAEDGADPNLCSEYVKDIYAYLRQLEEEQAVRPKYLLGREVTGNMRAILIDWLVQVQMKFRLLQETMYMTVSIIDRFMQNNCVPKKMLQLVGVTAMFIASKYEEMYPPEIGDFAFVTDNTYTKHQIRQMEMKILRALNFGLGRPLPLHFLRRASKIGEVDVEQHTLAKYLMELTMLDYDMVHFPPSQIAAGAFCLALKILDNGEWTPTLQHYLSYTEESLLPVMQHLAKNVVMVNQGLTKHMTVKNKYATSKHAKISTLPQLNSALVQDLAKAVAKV
cdk4/cyclin D1, sequence (P11802 whole entry): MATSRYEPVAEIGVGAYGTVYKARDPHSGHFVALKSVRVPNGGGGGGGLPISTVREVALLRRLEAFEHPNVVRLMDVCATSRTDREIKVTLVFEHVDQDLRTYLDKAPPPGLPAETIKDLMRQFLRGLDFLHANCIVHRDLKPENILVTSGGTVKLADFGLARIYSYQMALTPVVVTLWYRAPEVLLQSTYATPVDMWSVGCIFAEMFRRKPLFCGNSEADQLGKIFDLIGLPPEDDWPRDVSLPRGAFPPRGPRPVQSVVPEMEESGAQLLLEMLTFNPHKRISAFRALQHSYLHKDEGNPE
cdk4/cyclin D1, sequence (P24385 whole entry partner): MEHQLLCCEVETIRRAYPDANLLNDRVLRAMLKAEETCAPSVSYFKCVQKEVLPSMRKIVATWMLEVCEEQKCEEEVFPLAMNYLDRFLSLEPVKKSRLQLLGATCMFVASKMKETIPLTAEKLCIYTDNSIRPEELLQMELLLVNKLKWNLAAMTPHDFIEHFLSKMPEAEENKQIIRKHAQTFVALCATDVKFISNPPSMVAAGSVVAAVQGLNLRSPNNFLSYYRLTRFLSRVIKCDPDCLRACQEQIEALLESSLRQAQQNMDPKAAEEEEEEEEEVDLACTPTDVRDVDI

Row | Substance | IC50 (cdk4/cyclin D1) [nM] | IC50 (MDA-MB-435) [µM] | IC50 (NCI-H460) [µM] | IC50 (PC-3) [µM] | IC50 (Colo-205) [µM] | IC50 (cdk2/cyclin E) [nM] | IC50 (cdk1/cyclin B) [nM] | IC50 (cdk4/cyclin D1; inhibition of cyclin D1/CDK 4 enzyme activity) [nM] | IC50 (HL-60) [µM] | IC50 (Jurkat) [µM] | PC-3 Mean Vol. ± SD ([1]; 1 mg/kg ip q1d 5x/wk) | PC-3 Mean Vol. ± SD ([1]; 3 mg/kg ip q1d 5x/wk) | HL60 Mean Vol. ± SD (HL-60 human leukemia; 1 mg/kg ip q1d 5x/wk) | HL60 Mean Vol. ± SD (HL-60 human leukemia; 3 mg/kg ip q1d 5x/wk)
1 | trans-N^2-(4-Amino-cyclohexyl)-9-cyclohexyl-N^6-[1-(4-chloro-benzenesulfonyl)-piperidin-4-yl]-9H-purine-2,6-diamine dihydrochloride [Compound 108] | 170 | 0.14 | 0.29 | 0.43 | 0.18 | 10 | 7 |  |  |  |  |  |  | 
2 | trans-1-{4-[2-(4-Amino-cyclohexylamino)-9-cyclopentyl-9H-purin-6-ylamino]-piperidin-1-yl}-1-(4-trifluoromethyl-phenyl)-methanone dihydrochloride [Compound 3] |  | 0.25 |  | 0.66 |  | 48 | 55 | 1120 | 0.13 | 0.22 | 671 ± 672 | 785 ± 473 | 6370 ± 4655 | 6092 ± 4278
